Experiments:
primary motor neurons = assay: Neurite outgrowth in primary spinal cord motor neurons; assay type: cell-based, mouse
Protocol: Primary cultured mouse embryonic spinal cord motor neurons were isolated from spinal cord embryo of C57BL/6J mouse on 13.5th day of embryonic stage (E13.5). Solutions of zonisamide in DMSO were prepared at concentrations from 200 μmol/L to […] and then added to the culture medium to obtain the final concentration of zonisamide from 1 μmol/L to 20 μmol/L. The culture medium contained 0.5% DMSO whether or not it contained zonisamide. The cells were seeded at 4.0×10^3 cells/cm^2 in a 96-well plate (Asahi Techno Glass) coated with poly-L-lysine and laminin and maintained in Sumilon neuron culture medium (Sumitomo Bakelite). After incubation for 2 days, the cells were fixed in PBS with 4% […] at ordinary temperature for 15 minutes. The cells were washed with PBS once, blocked with PBS containing 2% goat serum and 0.1% Triton-X, and immunostained with mouse anti-tau-1 monoclonal antibody (1:500, MAB3420, Millipore) and Alexa Fluor 555-conjugated goat anti-mouse secondary antibody (1:1000, Life Technologies). Neurites were automatically analyzed on ArrayScan VTI HCS Reader. The neurite length and the number of nerve branch points were quantified by evaluating the longer 200 neurites. The ratio of neurite-bearing cells was determined by counting cells having a neurite length of 25 micron or more in each well.

JNK1/2/3 = assay: Western blot of JNK1/2/3 phosphorylation in primary motor neurons; assay type: cell-based, mouse
Protocol: (§1) Zonisamide (0, 10, or 20 μmol/L) was added to primary motor neurons 4 hours after the beginning of culture. The cells were rinsed with a buffer (50 mmol/L HEPES pH 7.0, 150 mmol/L NaCl, 1% glycerol, 1% TritonX-100, 1.5 mmol/L MgCl2, 1 mmol/L EGTA, 100 mmol/L NaF, 10 mmol/L sodium pyrophosphate, […], 1 mmol/L PMSF, and 1 mmol/L sodium orthovanadate (V)) at days 2 and 3. Total protein was dissolved in 1× Laemmli buffer, separated on a 10% SDS polyacrylamide gel, and transferred to a polyvinylidene fluoride membrane (Immobilon-P, Millipore). The membrane was washed with Tris-buffered physiological saline with 0.05% Tween 20 (TBS-T) and blocked with TBS-T containing 3% skim milk at room temperature for 1 hour. The membrane was incubated with any of anti-Erk1/2 (#4696, Cell Signaling), anti-phosphorylated Erk1/2 (#4370, Cell Signaling), or anti-phosphorylated JNK1/2/3 (#4668, Cell Signaling) antibody (diluted at 1:1000) at 4° C. overnight. The membrane was washed with TBS-T for 10 minutes three times and incubated with […] secondary antibody conjugated to horseradish peroxidase (HRP, GE Healthcare, 1:6000) at room temperature for 1 hour. The blot was detected with Amersham ECL Western blotting detection reagent (GE Healthcare) and quantified with ImageJ program (http://imagej.nih.gov/ij/index.html).

Erk1/2 = assay: Western blot of Erk1/2 phosphorylation in primary motor neurons; assay type: cell-based, mouse; details: primary motor neurons, 0, 10, or 20 μmol/L, days 2 and 3
Protocol: as §1

[1] = system: Bdnf, Ngf, Ntf4, Ntrk1, Ntrk2, Map2, Mapt, Gap43; assay: Mouse sciatic nerve autologous transplantation model: mRNA in sciatic nerve segment; assay type: in vivo; details: sciatic nerve segment distal to the distal transection site, 8 weeks after surgery
Description: Adult male C57BL/6J mice (8 weeks old; 19.5-22.0 g) were purchased from Charles River. The mice were anesthetized with isoflurane and underwent gluteal muscle incision under a sterile condition to expose the sciatic nerve in the left leg. The sciatic nerve was cut at the following two sites (1) and (2): (1) the site 3 mm distal to the first bifurcation of biceps femoris (hereinafter referred to as proximal transection site) (2) the site 3 mm distal to the proximal transection site (hereinafter referred to as distal transection site) The excised nerve segment with a length of 3 mm was confirmed to be completely cut at the two sites. The perineurium was sutured with nylon thread (10-0 black) at the proximal transection site and the distal transection site under a microscope. The remaining thread was used as a marker for finding the nerve transection site in the sacrifice of the mice. In order to reduce DMSO toxicity, a solution of 60 mg/mL zonisamide in 100% DMSO was prepared and the solution was diluted in olive oil to give a solution of 3 mg/mL zonisamide in 5% DMSO. The control solution (5% DMSO) or zonisamide (3 mg/mL×about 0.2 mL) at 30 mg/kg/day was administered to the stomach using a disposable probe needle (flexible type, Fuchigami) once a day for 1 to 8 weeks from the end of surgery until sacrifice. Myelin sheath formation in the sciatic nerve was analyzed in six mice in each group. One week after the sciatic nerve autologous transplantation, the sciatic nerve was transected at “the proximal transection site” and “the site 3 mm distal to the distal transection site” to excise a nerve segment with a length of 6 mm. Subsequently, the nerve segment was fixed in 2% paraformaldehyde/2.5% glutaraldehyde in 0.2 mol/L sodium cacodylate buffer pH 7.3 overnight, treated with 2% osmium tetroxide for 3 hours, and dehydrated in ethanol. After epon embedding, a semithin section (with a thickness of 1 μm) was cut at the position 0.7 mm distal to the distal transection site, stained with alkaline Toluidine blue (Sigma), and examined under a microscope (FSX100, Olympus). The number and area of myelinated axons in the sciatic nerve were manually measured using ImageJ software in a blinded fashion. Eight weeks after sciatic nerve autologous transplantation, the entire gastrocnemius muscle and a sciatic nerve segment between the distal transection site and the site 3 mm distal to the distal transection site were isolated for total RNA extraction. Similar sciatic nerve segment was also isolated from the hindlimb without transected sciatic nerve. The mRNA expression levels of Bdnf, Ngf, Ntf4, Ntrk1, Ntrk2, Map2, Mapt, Gap43, Chrne, Colq, and Rapsn were quantified in a manner similar to Example 5.

NSC34 cells = assay: Screening of neurite length in NSC34 cells; assay type: cell-based, mouse; details: dose dependency, FIG. 1
Protocol: The cells were seeded in DMEM/F12 differentiation medium (Invitrogen) supplemented with 1% FBS and […] doxycycline in a 96-well plate at 1.6×10^3 cells/cm^2 to induce the expression of GFP. […] Subsequently, cell nuclei were stained with Hoechst 33342 (1:100,000, Sigma Aldrich). Sixteen images per well were acquired on ArrayScan VTI HCS Reader (Thermo Scientific Cellomics). The average of neurite length in each well was automatically determined using Neuronal Profiling v4.0 BioApplication (Thermo Scientific Cellomics).

[2] = dose dependency, 1 μmol/L to 20 μmol/L, FIG. 1

Compound: NS(=O)(=O)Cc1noc2ccccc12 [Zonisamide, 3-sulfamoylmethyl-1,2-benzisoxazole]
- neurite extension of primary motor neurons (screening of the 16 drugs) (primary motor neurons; culture for 48 hours, tau staining): able to extend neurites
- axonal growth (average neurite length) in primary motor neurons (primary motor neurons; [2]): dose-dependent axonal growth
- number of branch points in axons of primary motor neurons (primary motor neurons; [2]): dose-dependent increase
- ratio of neurite-bearing cells in primary motor neurons (primary motor neurons; neurite length of 25 micron or more, FIG. 1): not increased
- phosphorylation level of JNK1/2/3 (JNK1/2/3): did not affect
- Erk1/2 phosphorylation (Erk1/2): suppress
- expression level of Bdnf [1]: unchanged
- gene expression level of Ngf [1]: increased
- gene expression level of Ntf4 [1]: increased
- mRNA level of Gap43 [1]: elevated
- mRNA level of Map2 [1]: elevated
- mRNA level of Mapt [1]: elevated
- mRNA level of Ntrk1 [1]: increased
- mRNA level of Ntrk2 [1]: increased
- axonal growth (average neurite length) in NSC34 cells (NSC34 cells): dose-dependent axonal growth

Reference: US20210106566A1, “PHARMACEUTICAL COMPOSITION FOR TREATING AND/OR PREVENTING PERIPHERAL NEUROPATHY OR SPINAL CORD INJURY” (NATIONAL UNIVERSITY CORPORATION NAGOYA UNIVERSITY, priority 2015, published 2021)
